In PubChem BioAssay AID192 (DTP/NCI, 2004) one finds T/C data, which are given here for 23 molecules.

SMILES strings stand for the structures. Values joined by “and” are separate entries in the source; they are usually repeats but may differ in a detail not shown here. Equal entries are not always repeated. Inconclusive results and toxic doses are left out.

For this assay, the system named is BDF1 mice, B16 melanoma ip, median survival T/C. Kind of assay: NCI In Vivo Anticancer Drug Screen. Data for tumor model B16 Melanoma (intraperitoneal) in B6D2F1 (BDF1) mice. As to conditions: endpoint: median survival time, higher = longer survival. The gist of the method:
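The ratio T/C compares compound-treated mice with vehicle-treated controls, using survival or tumor size as the endpoint in a transplantable tumor model.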

Where [1] appears, read: dose: 1.56 mg/kg/injection, schedule: Q01DX009 (ip), vehicle: saline.
Where [2] appears, read: dose: 3.12 mg/kg/injection, schedule: Q01DX009 (ip), vehicle: saline.
Where [3] appears, read: dose: 50.0 mg/kg/injection, schedule: Q01DX009 (ip), vehicle: saline with Tween-80.
[4] abbreviates: dose: 100.0 mg/kg/injection, schedule: Q01DX009 (ip), vehicle: saline with Tween-80.
Where [5] appears, read: dose: 200.0 mg/kg/injection, schedule: Q01DX009 (ip), vehicle: saline with Tween-80.
The mark [6] stands for this setting: dose: 400.0 mg/kg/injection, schedule: Q01DX009 (ip), vehicle: saline with Tween-80.
Where [7] appears, read: dose: 100.0 mg/kg/injection, schedule: Q01DX009 (ip), vehicle: Klucel (hydroxypropylcellulose) (HPC).
The mark [8] stands for this setting: dose: 200.0 mg/kg/injection, schedule: Q01DX009 (ip), vehicle: Klucel (hydroxypropylcellulose) (HPC).
The mark [9] stands for this setting: dose: 25.0 mg/kg/injection, schedule: Q01DX009 (ip), vehicle: Klucel (hydroxypropylcellulose) (HPC).
[10] abbreviates: dose: 50.0 mg/kg/injection, schedule: Q01DX009 (ip), vehicle: Klucel (hydroxypropylcellulose) (HPC).
Setting [11] is: dose: 400.0 mg/kg/injection, schedule: Q01DX009 (ip), vehicle: Klucel (hydroxypropylcellulose) (HPC).

For the molecule `CN(C)CC/C=C1\c2ccccc2Sc2ccc(C(F)(F)F)cc21`, the T/C reads like this: (dose: 0.19 mg/kg/injection, schedule: Q01DX009 (ip), vehicle: saline) 105 % of control; (dose: 0.39 mg/kg/injection, schedule: Q01DX009 (ip), vehicle: saline) 122 % of control; (dose: 0.78 mg/kg/injection, schedule: Q01DX009 (ip), vehicle: saline) 111 % of control; under setting [1], 108 % of control; under setting [2], 105 % of control; (dose: 6.12 mg/kg/injection, schedule: Q01DX009 (ip), vehicle: saline) 90 % of control.

Regarding `CN1CCCCC1CCN1c2ccccc2Sc2ccc(Cl)cc21` (stereo unspecified), the T/C by setting is: under setting [1], 109 % of control; under setting [2], 102 % of control; (dose: 6.25 mg/kg/injection, schedule: Q01DX009 (ip), vehicle: saline) 100 % of control; (dose: 12.5 mg/kg/injection, schedule: Q01DX009 (ip), vehicle: saline) 103 % of control; (dose: 25.0 mg/kg/injection, schedule: Q01DX009 (ip), vehicle: saline) 94 % of control.

For the molecule `N#CCN1CCCN(CC#N)C1`, the T/C (dose: 75.0 mg/kg/injection, schedule: Q01DX009 (ip), vehicle: Klucel (hydroxypropylcellulose) (HPC)) is 96 % of control.

For `CC(C)CC(NC(=O)OCc1ccccc1)C(=O)NC(Cc1c[nH]c2ccccc12)C(=O)O` (stereo unspecified), the T/C is, setting by setting: under setting [3], 90 % of control; under setting [4], 96 % of control; under setting [5], 96 % of control; under setting [6], 98 % of control.

As to `CNC(=O)Nc1ccc(C)c(Cl)c1`, the T/C is 105 % of control under setting [7] and 91 % of control under setting [8].

As for `COc1ccc(NC(=O)Nc2ccc(C)c(Cl)c2)cc1`, the T/C was 109 % of control (dose: 100.0 mg/kg/injection, schedule: Q01DX009 (sc), vehicle: olive oil, sesame oil, peanut oil); 100 % of control (dose: 200.0 mg/kg/injection, schedule: Q01DX009 (sc), vehicle: olive oil, sesame oil, peanut oil); 98 % of control (dose: 400.0 mg/kg/injection, schedule: Q01DX009 (sc), vehicle: olive oil, sesame oil, peanut oil).

With `COc1ccc(NC(=O)Nc2ccccc2OC)cc1`, the T/C under setting [4] is 102 % of control, the T/C under setting [5] is 115 % of control and the T/C under setting [6] was 101 % of control.

In the case of `COC(CCC(C)C1OC23CC(OC(=O)CC(C(C)O)OC(=O)CC(O)(O2)C(C)CC3(C)C)C1C)c1cccc(O)c1` (stereo unspecified), the T/C (dose: 12.5 micrograms/kg/injection, schedule: Q01DX009 (ip), vehicle: other) was 103 % of control; the T/C (dose: 25.0 micrograms/kg/injection, schedule: Q01DX009 (ip), vehicle: other) is 101 % of control; the T/C (dose: 50.0 micrograms/kg/injection, schedule: Q01DX009 (ip), vehicle: other) is 97 % of control; the T/C (dose: 100.0 micrograms/kg/injection, schedule: Q01DX009 (ip), vehicle: other) is 101 % of control.

As to `COc1ccc(CCN2CCCC2C(=O)O)cc1OC` (stereo unspecified), the T/C is, setting by setting: (dose: 100.0 mg/kg/injection, schedule: Q04DX003 (ip), vehicle: saline) 100 % of control; (dose: 200.0 mg/kg/injection, schedule: Q04DX003 (ip), vehicle: saline) 105 % of control; (dose: 400.0 mg/kg/injection, schedule: Q04DX003 (ip), vehicle: saline) 96 % of control.

On to `CCC(C)C1NC(=O)C(NC(=O)c2c3nc4c(C(=O)NC5C(=O)NC(C(C)CC)C(=O)N6CCCC6C(=O)N(C)CC(=O)N(C)C(C(C)C)C(=O)OC5C)cc(N)c(C)c4oc-3c(C)c(=O)c2N)C(C)OC(=O)C(C(C)C)N(C)C(=O)CN(C)C(=O)C2CCCN2C1=O` (stereo unspecified), for which the T/C is 110 % of control (dose: 12.5 micrograms/kg/injection, schedule: Q01DX009 (ip), vehicle: water); 104 % of control (dose: 25.0 micrograms/kg/injection, schedule: Q01DX009 (ip), vehicle: water); 161 % of control (dose: 118.0 micrograms/kg/injection, schedule: Q01DX009 (ip), vehicle: water); 159 % of control (dose: 400.0 micrograms/kg/injection, schedule: Q01DX009 (ip), vehicle: water).

As to `CC(C)C(NC(=O)OC(C)(C)C)C(=O)O` (stereo unspecified), the T/C is, setting by setting: under setting [9], 123 % of control; under setting [10], 101 % of control.

On to `O=C(/C=C/c1ccncc1)c1ccccc1`, for which the T/C was 93 % of control (dose: 12.5 mg/kg/injection, schedule: Q04DX003 (ip), vehicle: Klucel (hydroxypropylcellulose) (HPC)); 110 % of control (dose: 25.0 mg/kg/injection, schedule: Q04DX003 (ip), vehicle: Klucel (hydroxypropylcellulose) (HPC)); 103 % of control (dose: 50.0 mg/kg/injection, schedule: Q04DX003 (ip), vehicle: Klucel (hydroxypropylcellulose) (HPC)); 99 % of control (dose: 100.0 mg/kg/injection, schedule: Q04DX003 (ip), vehicle: Klucel (hydroxypropylcellulose) (HPC)).

Turning to `CN(C)C1=C(N2CC2)C(=O)C(N(C)C)=C(N2CC2)C1=O`, the T/C reads like this: (dose: 0.12 mg/kg/injection, schedule: Q01DX009 (ip), vehicle: saline) 106 % of control; (dose: 0.25 mg/kg/injection, schedule: Q01DX009 (ip), vehicle: saline) 112 % of control; (dose: 0.5 mg/kg/injection, schedule: Q01DX009 (ip), vehicle: saline) 93 % of control; (dose: 1.0 mg/kg/injection, schedule: Q01DX009 (ip), vehicle: saline) 112 % of control.

As for `CC12CC(C(=O)O)C3(O)CC(C)(C1)CC(C)(C2)C3` (stereo unspecified) (tested in a mixture with another compound), the T/C reads like this: (dose: 12.5 mg/kg/injection, schedule: Q01DX009 (ip), vehicle: Klucel (hydroxypropylcellulose) (HPC)) 97 % of control and 101 % of control; under setting [9], 93 % of control and 107 % of control; under setting [10], 94 % of control and 96 % of control; under setting [7], 96 % of control and 103 % of control; under setting [8], 94 % of control and 98 % of control.

Regarding `CC(=O)c1ccccc1I`, the T/C is 102 % of control and 113 % of control under setting [9]; 105 % of control and 106 % of control under setting [10]; 105 % of control and 106 % of control under setting [7]; 102 % of control and 106 % of control under setting [8].

As to `CC(=O)C12OC1(C)CC1C3CC=C4CC(O)CCC4(C)C3CCC12C` (stereo unspecified), the T/C runs as follows: under setting [7], 107 % of control; under setting [8], 95 % of control; under setting [11], 105 % of control.

Turning to `O=C(Oc1cccc(OC(=O)c2ccc(Cl)cc2)c1)c1ccc(Cl)cc1`, the T/C is, setting by setting: under setting [7], 89 % of control; under setting [8], 89 % of control.

In the case of `Cc1cc(C)cc(OCC2CNC(=O)O2)c1` (stereo unspecified), the T/C is, setting by setting: under setting [9], 94 % of control; under setting [10], 108 % of control; under setting [7], 91 % of control; under setting [8], 94 % of control; under setting [11], 100 % of control.

Take `CC1CCC2(CC1)CCN(CCCN(C)C)CC2`: the T/C by setting is: (dose: 50.0 mg/kg/injection, schedule: Q01DX009 (ip), vehicle: saline) 99 % of control; (dose: 100.0 mg/kg/injection, schedule: Q01DX009 (ip), vehicle: saline) 110 % of control.

On to `OC(C(c1ccccc1)c1ccccn1)(C(F)(F)F)C(F)(F)F` (stereo unspecified), for which the T/C (dose: 66.0 mg/kg/injection, schedule: Q04DX003 (ip), vehicle: saline with Tween-80) was 112 % of control; the T/C under setting [4] is 110 % of control; the T/C (dose: 100.0 mg/kg/injection, schedule: Q04DX003 (ip), vehicle: saline with Tween-80) was 117 % of control; the T/C (dose: 150.0 mg/kg/injection, schedule: Q04DX003 (ip), vehicle: saline with Tween-80) is 115 % of control; the T/C under setting [5] is 112 % of control; the T/C under setting [6] was 105 % of control.

With `Cc1cccc2cc3c(ccc4ccccc43)c[n+]12`, the T/C was 105 % of control (dose: 1.0 mg/kg/injection, schedule: Q01DX009 (ip), vehicle: saline sonified); 107 % of control (dose: 2.0 mg/kg/injection, schedule: Q01DX009 (ip), vehicle: saline sonified); 102 % of control (dose: 4.0 mg/kg/injection, schedule: Q01DX009 (ip), vehicle: saline sonified).

As to `CCN(CC)c1ccc(C=Nc2cccc(C(F)(F)F)c2)cc1`, the T/C is 103 % of control under setting [10], 96 % of control under setting [7] and 96 % of control under setting [8].

Regarding `C[n+]1noc([O-])c1-c1ccccc1`, the T/C runs as follows: under setting [3], 101 % of control; under setting [4], 97 % of control; under setting [5], 103 % of control.
